Measurements as given in US20250263395A1, “COMPOUNDS THAT MEDIATE PROTEIN DEGRADATION AND METHODS OF USE THEREOF” (Monte Rosa Therapeutics AG, priority 2022, published 2025).

How the values were obtained:
CRBN-DDB1 = CRBN-DDB1 (Homo sapiens (Human), UniProt Q96SW2); experiment: CRBN HTRF assay (Cy5-Thalidomide probe displacement); assay type: binding; conditions: CRBN-DDB1 2.5 nM, Cy5-Thalidomide 100 nM, 30 min; Ki from geometric mean IC50 by Cheng-Prusoff
In short: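 HTRF displacement of Cy5-thalidomide probe (100 nM) from His-CRBN-DDB1 (2.5 nM) with anti-His terbium cryptate, in HEPES/NaCl/TCEP/EDTA/Tween20 buffer. 10-point 1:3 compound series, 30 min at ambient temperature; signal normalised to DMSO and lenalidomide controls, IC50 fitted and Ki derived by Cheng-Prusoff.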

CDK2 = CDK2 (Homo sapiens (Human), UniProt P24941); experiment: CDK2 NanoBiT assay (HiBiT-tagged CDK2 degradation); assay type: cell-based; conditions: HEK293, HEK293 clonal line, C-terminal HiBiT tag on CDK2, LgBiT; 24 hours
In short: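 HEK293 line with CRISPR knock-in C-terminal HiBiT-tagged CDK2 and stable LgBiT, preincubated 16 h with live-cell substrate, then compound-treated 24 h at 37° C, 5% CO2 (30 μM stock). Luminescence normalized to plate negative and positive controls; EC50 from 3-parameter logistic fit, Hill slope 1.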

CRBN-DDB1, sequence (Q96SW2 whole entry): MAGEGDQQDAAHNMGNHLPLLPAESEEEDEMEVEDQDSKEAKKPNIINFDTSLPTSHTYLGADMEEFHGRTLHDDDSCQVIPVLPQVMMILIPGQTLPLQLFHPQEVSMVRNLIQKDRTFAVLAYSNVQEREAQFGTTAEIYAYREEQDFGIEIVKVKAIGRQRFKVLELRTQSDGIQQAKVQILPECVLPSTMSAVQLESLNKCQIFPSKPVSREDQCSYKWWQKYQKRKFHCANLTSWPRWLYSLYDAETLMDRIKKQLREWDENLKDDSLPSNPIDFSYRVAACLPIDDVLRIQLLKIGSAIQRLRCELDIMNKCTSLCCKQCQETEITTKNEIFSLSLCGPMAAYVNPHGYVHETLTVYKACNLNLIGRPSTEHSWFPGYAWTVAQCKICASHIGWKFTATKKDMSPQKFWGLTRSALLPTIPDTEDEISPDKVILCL
CRBN-DDB1, sequence (Q16531 whole entry partner): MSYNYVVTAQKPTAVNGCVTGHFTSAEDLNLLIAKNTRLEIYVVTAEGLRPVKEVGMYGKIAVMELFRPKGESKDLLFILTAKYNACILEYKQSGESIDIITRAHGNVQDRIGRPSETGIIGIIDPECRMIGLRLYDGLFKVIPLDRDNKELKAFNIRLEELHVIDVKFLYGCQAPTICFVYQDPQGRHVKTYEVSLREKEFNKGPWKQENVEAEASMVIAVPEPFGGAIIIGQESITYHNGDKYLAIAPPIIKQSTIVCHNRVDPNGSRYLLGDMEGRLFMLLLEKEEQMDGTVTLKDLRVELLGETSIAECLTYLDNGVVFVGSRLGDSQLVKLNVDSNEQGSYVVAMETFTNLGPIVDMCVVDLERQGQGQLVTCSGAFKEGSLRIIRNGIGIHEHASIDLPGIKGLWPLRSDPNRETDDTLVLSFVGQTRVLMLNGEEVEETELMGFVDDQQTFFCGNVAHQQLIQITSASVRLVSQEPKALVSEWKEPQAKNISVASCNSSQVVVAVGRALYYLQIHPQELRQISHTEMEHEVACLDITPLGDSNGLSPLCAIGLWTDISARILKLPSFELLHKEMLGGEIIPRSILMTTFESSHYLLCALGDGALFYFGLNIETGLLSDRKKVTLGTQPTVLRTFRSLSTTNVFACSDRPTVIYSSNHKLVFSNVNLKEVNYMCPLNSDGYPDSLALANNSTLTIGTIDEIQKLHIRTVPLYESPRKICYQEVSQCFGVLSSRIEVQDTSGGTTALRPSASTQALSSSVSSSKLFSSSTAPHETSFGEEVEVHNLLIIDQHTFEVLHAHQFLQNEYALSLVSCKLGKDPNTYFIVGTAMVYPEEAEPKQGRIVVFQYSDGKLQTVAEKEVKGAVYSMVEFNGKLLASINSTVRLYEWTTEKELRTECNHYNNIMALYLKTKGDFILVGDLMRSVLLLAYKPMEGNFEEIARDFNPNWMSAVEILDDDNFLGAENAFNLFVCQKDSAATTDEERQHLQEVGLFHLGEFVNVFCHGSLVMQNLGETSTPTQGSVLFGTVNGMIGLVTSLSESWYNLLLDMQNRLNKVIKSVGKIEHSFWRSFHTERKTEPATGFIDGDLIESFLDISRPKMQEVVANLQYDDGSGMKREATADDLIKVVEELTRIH

SMILES	Ki (CRBN-DDB1) [nM]	Dmax (CDK2) [%]
O=C1CC[C@H](c2c(F)cc(N3CC[C@@H](NC(=O)OCC4CC5(CCC5)C4)C3=O)cc2F)C(=O)N1 [Compound 54, spiro[3.3]heptan-2-ylmethyl ((R)-1-(4-((R)-2,6-dioxopiperidin-3-yl)-3,5-difluorophenyl)-2-oxopyrrolidin-3-yl)carbamate]	≤ 100	50 to 80
CC(C)C1CC(COC(=O)NC2CN(c3cc(F)c(C4CCC(=O)NC4=O)c(F)c3)C2)C1 (stereo not drawn) [Compound 68, (3-isopropylcyclobutyl)methyl (1-(4-(2,6-dioxopiperidin-3-yl)-3,5-difluorophenyl)azetidin-3-yl)carbamate]	100 to 1000	> 80
CN(C(=O)N1CC(OC(=O)NC2CN(c3cc(F)c(C4CCC(=O)NC4=O)c(F)c3)C2)C1)c1cccc(Cl)c1 (stereo not drawn) [Compound 8, 1-((3-chlorophenyl)(methyl)carbamoyl)azetidin-3-yl (1-(4-(2,6-dioxopiperidin-3-yl)-3,5-difluorophenyl)azetidin-3-yl)carbamate]	≤ 100	> 80
O=C1CCC(c2ccc(N3CC(NC(=O)OCC4CC5(CCC5)C4)C3)cc2F)C(=O)N1 (stereo not drawn) [Compound 59, spiro[3.3]heptan-2-ylmethyl (1-(4-(2,6-dioxopiperidin-3-yl)-3-fluorophenyl)azetidin-3-yl)carbamate]	≤ 100	> 80
O=C1CCC(c2c(F)cc(N3CC(NC(=O)OC4CN(c5ccccn5)C4)C3)cc2F)C(=O)N1 (stereo not drawn) [Compound 83, 1-(pyridin-2-yl)azetidin-3-yl (1-(4-(2,6-dioxopiperidin-3-yl)-3,5-difluorophenyl)azetidin-3-yl)carbamate]	≤ 100	50 to 80
COc1ccc(-c2nnc(NC3CN(c4cc(F)c(C5CCC(=O)NC5=O)c(F)c4)C3)o2)cc1 (stereo not drawn) [Compound 98, 3-(2,6-difluoro-4-(3-((5-(4-methoxyphenyl)-1,3,4-oxadiazol-2-yl)amino)azetidin-1-yl)phenyl)piperidine-2,6-dione]	≤ 100	> 80
C[C@@H]1[C@@H](Nc2nnc(C34CC(C(F)(F)F)(C3)C4)o2)CN1c1cc(F)c(C2CCC(=O)NC2=O)c(F)c1 (stereo partly drawn) [Compound 140, 3-(2,6-difluoro-4-((2R,3S)-2-methyl-3-((5-(3-(trifluoromethyl)bicyclo[1.1.1]pentan-1-yl)-1,3,4-oxadiazol-2-yl)amino)azetidin-1-yl)phenyl)piperidine-2,6-dione]	100 to 1000	50 to 80
Cn1nccc1N1CC(OC(=O)NC2CN(c3cc(F)c(C4CCC(=O)NC4=O)c(F)c3)C2)C1 (stereo not drawn) [Compound 7, 1-(1-methyl-1H-pyrazol-5-yl)azetidin-3-yl (1-(4-(2,6-dioxopiperidin-3-yl)-3,5-difluorophenyl)azetidin-3-yl)carbamate]	≤ 100	10 to 50
CN(C)C(=O)N1CCC(OC(=O)NC2CN(c3cc(F)c(C4CCC(=O)NC4=O)c(F)c3)C2)CC1 (stereo not drawn) [Compound 19, 1-(dimethylcarbamoyl)piperidin-4-yl (1-(4-(2,6-dioxopiperidin-3-yl)-3,5-difluorophenyl)azetidin-3-yl)carbamate]	≤ 100	10 to 50
CC(C)O[C@H]1C[C@@H](OC(=O)NC2CN(c3cc(F)c(C4CCC(=O)NC4=O)c(F)c3)C2)C1 (stereo partly drawn) [Compound 39, (1s, 3s)-3-isopropoxycyclobutyl (1-(4-(2,6-dioxopiperidin-3-yl)-3,5-difluorophenyl)azetidin-3-yl)carbamate]	≤ 100	50 to 80
COc1c(N2CC(NC(=O)OCC3CC4(CCC4)C3)C2)ccc(C2CCC(=O)NC2=O)c1F (stereo not drawn) [Compound 44, spiro[3.3]heptan-2-ylmethyl (1-(4-(2,6-dioxopiperidin-3-yl)-3-fluoro-2-methoxyphenyl)azetidin-3-yl)carbamate]	100 to 1000	> 80
O=C1CCC(c2c(F)cc(N3CC(NC(=O)OC4CN(c5nc6ccccc6o5)C4)C3)cc2F)C(=O)N1 (stereo not drawn) [Compound 69, 1-(benzo[d]oxazol-2-yl)azetidin-3-yl (1-(4-(2,6-dioxopiperidin-3-yl)-3,5-difluorophenyl)azetidin-3-yl)carbamate]	≤ 100	50 to 80
O=C1CCC(c2c(F)cc(N3CC(NC(=O)OCc4ccccc4)C3)cc2F)C(=O)N1 (stereo not drawn) [Compound 37, benzyl (1-(4-(2,6-dioxopiperidin-3-yl)-3,5-difluorophenyl)azetidin-3-yl)carbamate]	100 to 1000	50 to 80
CN(C(=O)N1CC[C@H](OC(=O)NC2CN(c3cc(F)c(C4CCC(=O)NC4=O)c(F)c3)C2)C1)C1CC1 (stereo partly drawn) [Compound 16, (S)-1-(cyclopropyl(methyl)carbamoyl)pyrrolidin-3-yl (1-(4-(2,6-dioxopiperidin-3-yl)-3,5-difluorophenyl)azetidin-3-yl)carbamate]	≤ 100	10 to 50
CN(C(=O)C12CC(OC(=O)NC3CN(c4cc(F)c(C5CCC(=O)NC5=O)c(F)c4)C3)(C1)C2)c1ccc(C#N)cc1 (stereo not drawn) [Compound 120, 3-((4-cyanophenyl)(methyl)carbamoyl)bicyclo[1.1.1]pentan-1-yl (1-(4-(2,6-dioxopiperidin-3-yl)-3,5-difluorophenyl)azetidin-3-yl)carbamate]	≤ 100	10 to 50
Cn1ccnc1N1CC(OC(=O)NC2CN(c3cc(F)c(C4CCC(=O)NC4=O)c(F)c3)C2)C1 (stereo not drawn) [Compound 77, 1-(1-methyl-1H-imidazol-2-yl)azetidin-3-yl (1-(4-(2,6-dioxopiperidin-3-yl)-3,5-difluorophenyl)azetidin-3-yl)carbamate]	≤ 100	10 to 50
O=C1CCC(c2c(F)cc(N3CC(Nc4nnc(Cc5ccccc5)o4)C3)cc2F)C(=O)N1 (stereo not drawn) [Compound 100, 3-(4-(3-((5-benzyl-1,3,4-oxadiazol-2-yl)amino)azetidin-1-yl)-2,6-difluorophenyl)piperidine-2,6-dione]	≤ 100	50 to 80
O=C1CCC(c2c(F)cc(N3CC(NC(=O)OCCc4ccccc4)C3)cc2F)C(=O)N1 (stereo not drawn) [Compound 34, phenethyl (1-(4-(2,6-dioxopiperidin-3-yl)-3,5-difluorophenyl)azetidin-3-yl)carbamate]	100 to 1000	50 to 80
Cc1ccccc1N(C)C(=O)N1CC(OC(=O)NC2CN(c3cc(F)c(C4CCC(=O)NC4=O)c(F)c3)C2)C1 (stereo not drawn) [Compound 70, 1-(methyl(o-tolyl)carbamoyl)azetidin-3-yl (1-(4-(2,6-dioxopiperidin-3-yl)-3,5-difluorophenyl)azetidin-3-yl)carbamate]	≤ 100	50 to 80
CN(C)C(=O)N1CC(OC(=O)NC2(C)CN(c3cc(F)c(C4CCC(=O)NC4=O)c(F)c3)C2)C1 (stereo not drawn) [Compound 14, 1-(dimethylcarbamoyl)azetidin-3-yl (1-(4-(2,6-dioxopiperidin-3-yl)-3,5-difluorophenyl)-3-methylazetidin-3-yl)carbamate]	≤ 100	10 to 50
O=C1CCC(c2c(F)cc(N3CC[C@@H](NC(=O)OCC4CC5(CCC5)C4)C3)cc2F)C(=O)N1 (stereo partly drawn) [Compound 64, spiro[3.3]heptan-2-ylmethyl ((3R)-1-(4-(2,6-dioxopiperidin-3-yl)-3,5-difluorophenyl)pyrrolidin-3-yl)carbamate]	≤ 100	> 80
O=C1CCC(c2c(F)cc(N3CC(Nc4nnc(-c5ccc(Cl)cc5)o4)C3)cc2F)C(=O)N1 (stereo not drawn) [Compound 93, 3-(4-(3-((5-(4-chlorophenyl)-1,3,4-oxadiazol-2-yl)amino)azetidin-1-yl)-2,6-difluorophenyl)piperidine-2,6-dione]	100 to 1000	> 80
Cc1cc(N2CC(NC(=O)OC3CN(C(=O)N(C)C4CC4)C3)C2)cc(F)c1C1CCC(=O)NC1=O (stereo not drawn) [Compound 15, 1-(cyclopropyl(methyl)carbamoyl)azetidin-3-yl (1-(4-(2,6-dioxopiperidin-3-yl)-3-fluoro-5-methylphenyl)azetidin-3-yl)carbamate]	≤ 100	50 to 80
O=C1CCC(c2c(F)cc(N3CC(NC(=O)OC4CN(C(=O)N5CC6(CCC6)C5)C4)C3)cc2F)C(=O)N1 (stereo not drawn) [Compound 31, 1-(2-azaspiro[3.3]heptane-2-carbonyl)azetidin-3-yl (1-(4-(2,6-dioxopiperidin-3-yl)-3,5-difluorophenyl)azetidin-3-yl)carbamate]	≤ 100	50 to 80
Cc1cc(N2CC(NC(=O)OC3CN(C(=O)N(C)C4CC4)C3)C2)cc(C)c1C1CCC(=O)NC1=O (stereo not drawn) [Compound 86, 1-(cyclopropyl(methyl)carbamoyl)azetidin-3-yl (1-(4-(2,6-dioxopiperidin-3-yl)-3,5-dimethylphenyl)azetidin-3-yl)carbamate]	100 to 1000	10 to 50
CC(C)(C)[Si](C)(C)O[C@H]1C[C@@H](COC(=O)NC2CN(c3cc(F)c(C4CCC(=O)NC4=O)c(F)c3)C2)C1 (stereo partly drawn) [Compound 49, ((1s, 3s)-3-((tert-butyldimethylsilyl)oxy)cyclobutyl)methyl (1-(4-(2,6-dioxopiperidin-3-yl)-3,5-difluorophenyl)azetidin-3-yl)carbamate]	100 to 1000	> 80
Cc1ccc(N(C)C(=O)N2CC(OC(=O)NC3CN(c4cc(F)c(C5CCC(=O)NC5=O)c(F)c4)C3)C2)c(C)c1 (stereo not drawn) [Compound 116, 1-((2,4-dimethylphenyl)(methyl)carbamoyl)azetidin-3-yl (1-(4-(2,6-dioxopiperidin-3-yl)-3,5-difluorophenyl)azetidin-3-yl)carbamate]	≤ 100	10 to 50
